{
  "source": "patent US11324829B2",
  "about": "“Antiseptic agent comprising meglumine or salt thereof” (priority 2016, dated 2022)",
  "tested_on": "E. coli, P. aeruginosa, S. aureus, C. albicans, A. brasiliensis",
  "assay": "Evaluation against category IA standard, Preservatives-Effectiveness Tests, Japanese Pharmacopoeia 16th edition (all 5 strains)",
  "assay_type": "cell-based",
  "conditions": "summary of Tables 1 to 3, against each of the strains",
  "experimental": "The following strains were used as inoculum strains.\nA test sample of each formulation was inoculated with an inoculum microorganism liquid so that the concentration of the microorganism liquid in the test sample was 10^5 to 10^6 cells/mL (for each of the 5 strains). Specifically, an inoculum microorganism liquid was prepared for each strain at 10^7 to 10^8 cfu/mL, and inoculated into a test sample of each of Examples 1 to 11 and Comparative Example 1, and uniformly mixed to obtain a sample, so that the inoculum microorganism liquid was at 10^5 to 10^6 cfu/mL. These samples were stored at 20 to 25° C. under a light shielding condition. At sampling points (after 14 days or 28 days), 1 mL of each sample was withdrawn with a micropipette to measure a viable cell count. […]\nThe test results in Tables 1 to 3 are each shown as the common logarithm value of the ratio (B/A) of a cell count (B) at the time of inoculation to a cell count (A) of viable cells. For example, the value “1” means that the measured viable cell count is as low as 10% of the inoculum cell count. Further, the formulations were evaluated whether they satisfied the standard of “category IA” according to the informative “Preservatives-Effectiveness Tests” defined in The Japanese Pharmacopoeia, 16th edition.",
  "data": [
    {"smiles": "CNC[C@H](O)[C@@H](O)[C@H](O)[C@H](O)CO", "note": "[meglumine, Meglumine]", "values": [
      {"measurement": "Antiseptic effect (in words)", "result": "alone has an antiseptic effect"}
    ]}
  ]
}
